Drawing on PubChem BioAssay (NCI), this text covers GI50 and TGI for 39 compounds.

Test systems include MDA-MB-468 breast; A498 renal; BT-549 breast; CAKI-1 renal; CCRF-CEM leukemia; COLO 205 colon; DU-145 prostate; HCC-2998 colon; HCT-116 colon; HOP-62 NSCLC; HS 578T breast; IGROV1 ovarian; MDA-MB-231 breast; MDA-MB-435; MOLT-4 leukemia; NCI-H226 lung; OVCAR-3 ovarian; OVCAR-5 ovarian; RXF 393 renal; SF-539 CNS; SK-MEL-28 melanoma; SK-OV-3 ovarian; SNB-19 CNS; SNB-75 CNS; SW-620 colon; TK-10 renal; U251 CNS.

Assay in all cases: inhibition of tumour cell growth, NCI panel, 48 h

Several values for one entry are separate records, joined by “and”; a condition that tells them apart may be missing. Equal entries are not always repeated.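 Briefly, cells in 96-well plates were exposed to five compound concentrations for 48 h, and endpoints were estimated by linear interpolation. GI50 marks 50% less growth. At the TGI there is no net growth.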 Where a SMILES comes first, the peptide text is derived from it. Bridges are numbered along the chain shown (N, C = ends). [ ]: non-standard residue; d: D form. The star is where a group is joined. Phe(3,5-F2) = N[C@@H](Cc1cc(F)cc(F)c1)C(=O)O; Pro(4R-Me) = C[C@H]1CN[C@H](C(=O)O)C1; aThr = C[C@H](O)[C@H](N)C(=O)O; Pip = O=C(O)[C@@H]1CCCCN1; X7 = CCC/C=C/C=C/C(=O)* Where only a bound is given, the exact number is not on record here.

For the compound `COc1cc2cc(Oc3ccc(NC(=O)Nc4ccc(F)c(C(F)(F)F)c4)cc3)c(C)nc2cc1OCCN1CCOCC1`, in the experiment with MDA-MB-468 breast, the GI50 is 0.451 µM and the TGI is 10.4 µM.

With `Nc1n[nH]c2ccc([C@H]3[C@@H]4C5CCC(C5)[C@@H]4c4c(ccc5[nH]ncc45)N3S(=O)(=O)C3CC3)cc12` (stereo partly drawn), in the experiment with MDA-MB-468 breast, the GI50 is 0.137 µM and the TGI stood at 1.7 µM.

With `CCOC(=O)Nc1ccc2c3c(cccc13)-c1ccccc1-2`, in the experiment on MDA-MB-468 breast, the GI50 is 1.37 µM and the TGI amounted to 5.21 µM.

Consider `Cc1cccc2c1NC(=O)[C@@H](NC(=O)[C@H](CCC(F)(F)F)[C@H](CCC(F)(F)F)C(N)=O)N=C2c1cccc(F)c1`, for which, in the experiment with MDA-MB-468 breast, the GI50 is 18.5 µM and the TGI was greater than 100 µM.

`CC[n+]1c(/C=C/c2ccc(N3CCCC3)cc2)cccc1/C=C/c1ccc(N2CCCC2)cc1`: in the experiment on MDA-MB-468 breast, the GI50 was 0.0423 µM and the TGI stood at 0.196 µM.

In the case of `CC(C)c1ccc2c(c1)CCC1C(C)(CN)CCCC21C` (stereo not drawn), in the experiment with MDA-MB-468 breast, the GI50 was 1.43 µM and the TGI amounted to 2.76 µM.

In the case of `CN1CCN(Cc2ccc(NC(=O)c3cncc(C#Cc4cnc5ccc(OCC6COC6)nn45)c3)cc2C(F)(F)F)CC1`, in the experiment with MDA-MB-468 breast, the GI50 was 0.196 µM and the TGI was 0.726 µM.

Regarding `CN1CCN(C(=O)OCc2nc3c(N4CCOCC4)nc(-c4ccccc4)nc3n2C)CC1`, in the experiment with MDA-MB-468 breast, the GI50 is 0.558 µM and the TGI worked out at 2.02 µM.

In the case of `NS(=O)(=O)c1ccc(N=Nc2c(O)[nH]c3cccc(CCc4ccncc4)c23)cc1`, in the experiment with MDA-MB-468 breast, the GI50 is greater than 25 µM and the TGI is greater than 25 µM.

Regarding `COc1cccc(Nc2ncnn3ccc(CN4CC[C@@H](N)[C@H](O)C4)c23)c1`, in the experiment with MDA-MB-468 breast, the GI50 was 0.0333 µM and 0.0201 µM; the TGI was 0.79 µM and 0.175 µM.

For `O=C(NC(=S)Nc1ccc(-c2nc3ccccc3[nH]2)cc1)c1ccc2ccccc2c1`, in the experiment on MDA-MB-468 breast, the GI50 is 2.34 µM and the TGI was determined as 7.72 µM.

Regarding `ClCCN(CCCl)c1ccc(OCc2ccccc2)cc1`, in the experiment on MDA-MB-468 breast, the GI50 is 1.45 µM and the TGI worked out at 16.7 µM.

With `CN1CCc2c(sc3ncnc(N/N=C/c4cn(-c5ccccc5)nc4-c4ccc(Br)cc4)c23)C1`, the GI50 is greater than 100 µM in the experiment with A498 renal; greater than 100 µM with BT-549 breast; greater than 100 µM in the experiment with CAKI-1 renal; 0.196 µM with CCRF-CEM leukemia; 0.332 µM with COLO 205 colon; greater than 100 µM with DU-145 prostate. Besides, the GI50 with HCC-2998 colon is 0.285 µM; in the experiment on HCT-116 colon, 0.102 µM; in the experiment on HOP-62 NSCLC it was 0.399 µM; in the experiment with HS 578T breast it was 16.4 µM; in the experiment with IGROV1 ovarian it was 0.322 µM; with MDA-MB-231 breast, 0.362 µM. For the same compound, the GI50 was greater than 100 µM in the experiment with MDA-MB-435; 0.261 µM in the experiment with MOLT-4 leukemia; greater than 100 µM with NCI-H226 lung; 0.0375 µM with OVCAR-3 ovarian; greater than 100 µM with OVCAR-5 ovarian; 18.3 µM in the experiment on RXF 393 renal. The GI50 with SF-539 CNS was 0.282 µM; with SK-MEL-28 melanoma it was greater than 100 µM; with SK-OV-3 ovarian, greater than 100 µM; in the experiment on SNB-19 CNS it was 20.3 µM; with SNB-75 CNS, 5.88 µM; in the experiment with SW-620 colon it was 0.352 µM. Moreover, the GI50 is greater than 100 µM in the experiment on TK-10 renal and 0.636 µM in the experiment on U251 CNS. In addition, the TGI in the experiment on A498 renal, with BT-549 breast, with CAKI-1 renal, with CCRF-CEM leukemia, with COLO 205 colon and with DU-145 prostate was greater than 100 µM throughout. Also, the TGI in the experiment with HCC-2998 colon, with HCT-116 colon, in the experiment on HOP-62 NSCLC, in the experiment with HS 578T breast, in the experiment on IGROV1 ovarian and with MDA-MB-231 breast was greater than 100 µM throughout. Also, the TGI in the experiment on MDA-MB-435 is greater than 100 µM; with MOLT-4 leukemia it was greater than 100 µM; with NCI-H226 lung it was greater than 100 µM; in the experiment with OVCAR-3 ovarian, 0.304 µM; with OVCAR-5 ovarian, greater than 100 µM; with RXF 393 renal, greater than 80.7 µM. The TGI with SF-539 CNS, with SK-MEL-28 melanoma, with SK-OV-3 ovarian, in the experiment on SNB-19 CNS, in the experiment on SNB-75 CNS and in the experiment on SW-620 colon was greater than 100 µM throughout. For the same compound, the TGI with TK-10 renal and in the experiment on U251 CNS was greater than 100 µM each time.

For `COC(=O)CC12CC(NC(=O)c3csc([C@@H](C[C@H](C(C)C)N(C)C(=O)[C@@H](NC(=O)[C@H]4CCCCN4C)C(C)C)OC(C)=O)n3)(C1)C2`, in the experiment with MDA-MB-468 breast, the GI50 was 0.00438 µM and the TGI is greater than 33.3 µM.

In the case of `O=C(CSc1nc2ccc([N+](=O)[O-])cc2[nH]1)Nc1ccc([N+](=O)[O-])cc1`, in the experiment with MDA-MB-468 breast, the GI50 is 1.08 µM and the TGI was 5.05 µM.

On to `NNC(=S)N/N=C/c1ccccn1`, for which, in the experiment with MDA-MB-468 breast, the GI50 was 1.94 µM and the TGI came out at 5.59 µM.

Consider `COc1c(O)cc2c(c1CC=C(C)C)OC(=O)c1c(cc(O)c(CC=C(C)C)c1O)O2`, for which, in the experiment with MDA-MB-468 breast, the GI50 was 4.19 µM and the TGI was found to be 8.21 µM.

For `O=C(/C=C/c1cccnc1)c1ccccc1`, in the experiment with MDA-MB-468 breast, the GI50 was 8.22 µM and the TGI came out at 22 µM.

As to `C#CCN(C)CCCOc1ccc(NCc2ccc(C(=O)NO)cc2)cc1Cl`, in the experiment on MDA-MB-468 breast, the GI50 was 1.7 µM and the TGI turned out to be 8.14 µM.

In the case of `CCN1C2=C(SC(=S)C1=C1SC(C(=O)c3ccccc3)=C(C(=O)c3ccccc3)S1)SC(=Nc1ccccc1)C2=O`, in the experiment with MDA-MB-468 breast, the GI50 was greater than 50.4 µM and the TGI was greater than 100 µM.

On to `Cc1cc(C)c2c(=O)cc(-c3ccccc3)[nH]c2c1`, for which, in the experiment on MDA-MB-468 breast, the GI50 is 3.79 µM and the TGI was 25.5 µM.

For `N#C/C(=C\c1ccc([N+](=O)[O-])cc1)n1nnc2cc(F)c(F)cc21`, in the experiment with MDA-MB-468 breast, the GI50 is 1.51 µM and the TGI was found to be 3.53 µM.

For the compound `O=C(NCCNc1nccc(-c2c(-c3ccc(F)cc3)nc3sccn23)n1)Nc1cccc(C(F)(F)F)c1`, in the experiment on MDA-MB-468 breast, the GI50 was 2.14 µM and the TGI came out at 7.46 µM.

Regarding `O=C1NC(=N[C@@H]2C[C@H]2c2ccccc2)S/C1=C\c1ccc2ncccc2c1`, in the experiment on MDA-MB-468 breast, the GI50 was 0.872 µM and the TGI turned out to be 5.85 µM.

On to `Cc1ccc([I+]c2ccc(C)cc2)cc1`, for which, in the experiment on MDA-MB-468 breast, the GI50 was 0.264 µM and the TGI was found to be 40 µM.

`CC(=O)N[C@@H](Cc1ccc(OP(=O)(O)O)cc1)C(=O)N[C@H]1CCC(=O)N2CCC[C@@H](C(=O)NCc3cccc4ccccc34)N2C1=O`: in the experiment with MDA-MB-468 breast, the GI50 is greater than 25 µM and the TGI is greater than 25 µM.

For the compound `COc1ccc2c(c1)OC(N)=C(C#N)C2c1ccc(F)c(F)c1` (stereo not drawn), in the experiment on MDA-MB-468 breast, the GI50 is 0.222 µM and the TGI turned out to be 3.56 µM.

With `CCC/C=C/C=C/C(=O)N[C@@H](Cc1cc(F)cc(F)c1)C(=O)N[C@@H]1C(=O)N2CCC[C@H]2C(=O)N2CCCC[C@H]2C(=O)N[C@@H](C)C(=O)N2C[C@H](C)C[C@H]2C(=O)O[C@H]1C` (X7-[Phe(3,5-F2)][aThr]P[Pip]A[Pro(4R-Me)]; ester 2-C), in the experiment with MDA-MB-468 breast, the GI50 was 0.271 µM and the TGI stood at 1.03 µM.

On to `COc1ccc(/C=C/C(=O)c2ccc(B(O)O)cc2)cc1O`, for which, in the experiment with MDA-MB-468 breast, the GI50 is 6.23 µM and the TGI worked out at 18.4 µM.

For `O=C1/C(=C\c2ccc(Cl)cc2)CN(C(=O)c2ccccc2)C/C1=C\c1ccc(Cl)cc1`, in the experiment with MDA-MB-468 breast, the GI50 is 1.86 µM and the TGI stood at 4.28 µM.

With `NCCSC1(O)C(=O)c2ccccc2-c2ccccc21` (stereo not drawn), in the experiment with MDA-MB-468 breast, the GI50 is 0.615 µM and the TGI is 2.12 µM.

Take `COc1ccc(-c2nc(Nc3ccc(F)cc3)nc(Nc3ccc4c(c3)nc(C)n4Cc3ccccc3)n2)cc1`: in the experiment with MDA-MB-468 breast, the GI50 was 2.27 µM and the TGI came out at 7.22 µM.

For `COC(=O)Nc1nc2ccc(C(=O)C3CC3)cc2[nH]1`, in the experiment on MDA-MB-468 breast, the GI50 is 0.247 µM and the TGI was 1.48 µM.

Take `Nc1nc(N)c2cc(Sc3ccc(Cl)cc3)ccc2n1`: in the experiment with MDA-MB-468 breast, the GI50 was 1.15 µM and the TGI stood at 2.71 µM.

With `Nc1ncnc2occ(-c3ccc(NC(=O)Nc4cc(C(F)(F)F)ccc4F)cc3)c12`, in the experiment with MDA-MB-468 breast, the GI50 was 4.46 µM and 3.9 µM; the TGI was 12.4 µM and 11.8 µM.

Regarding `CO[C@@H]1[C@H](N(C)C(=O)c2ccccc2)C[C@@H]2O[C@]1(C)n1c3ccccc3c3c4c(c5c6ccccc6n2c5c31)C(=O)NC4=O`, in the experiment on MDA-MB-468 breast, the GI50 was 0.335 µM and the TGI was greater than 100 µM.

Consider `COc1ncnn2ccc(-c3cnc4nc(C)n(Cc5nnc(C(C)F)o5)c4c3)c12` (stereo not drawn), for which, in the experiment with MDA-MB-468 breast, the GI50 was 0.051 µM and the TGI was 0.309 µM.

With `CC(C)[C@]12O[C@H]1[C@@H]1O[C@]13[C@]1(O[C@H]1C[C@H]1C4=C(CC[C@@]13C)C(=O)OC4)[C@@H]2OC(=O)OC(C)(C)C`, in the experiment with MDA-MB-468 breast, the GI50 was 0.0147 µM and the TGI amounted to 0.0361 µM.

Take `Oc1c(CCl)cc(Cl)cc1Cc1cc(Cl)cc(Cc2cc(Cl)cc(CCl)c2O)c1O`: in the experiment with MDA-MB-468 breast, the GI50 is 3.28 µM and the TGI is 13.1 µM.
